Measured values published in patent publication US7879611B2, “System for functional gene discovery in plants” (Agrigenetics Inc, priority 2000, dated 2011).

How the values were obtained:
[1] = tested on: wild type (Col-0) Arabidopsis; experiment: Copper tolerance germination assay; assay type: in vivo
Method: A screen for copper tolerance was developed in order to identify and isolate gene(s) whose altered expression confers copper tolerance and allows normal plant growth and development in the presence of an inhibitory level of copper. It has been experimentally determined that the lowest completely inhibitory concentration (LCI) of copper is 160 μM for hypocotyl and cotyledon expansion and the development of true leaves in wild type (Col-0) Arabidopsis.
For the primary screen, pooled T2 lines are plated on media supplemented with 160 μM CuSO4. Controls include wild type (Col-0 cand Shadara) plants germinating on plates with no copper and copper at the Col-0 LCI for germination. Plates are incubated 3 days at 4° C., then transferred to the growth room and incubated an additional 10 days.
Copper sensitivity is evaluated with germination assays, which are performed as described above for salt resistance screens.

[2] = tested on: wild-type cotyledons in Arabidopsis
Method: A salt tolerance screen is performed to identify and isolate gene(s) that confer salt (NaCl) tolerance in Arabidopsis.
A primary screen is conducted with T1 plants, using a germination assay. T1 seed is plated evenly in media supplemented with 250 mM NaCl. For negative and positive controls, wild type (Col-O) seed is plated in plates with and without, respectively, the supplemental NaCl. Plates are incubated for two days at 4° C., then transferred to a growth room and incubated an additional 7 to 14 days.
Salt tolerant germination is classified in five stages: 1) imbibation, emergence of radicle; 2) expansion and greening of cotyledons; 3) elongation of the hypocotyl; 4) elongation of the root and formation of root hairs; 5) development of true leaves.

| Structure (SMILES) | concentration at which negative gravitropism of the hypocotyl is completely inhibited [1] [µM] | concentration at which root elongation is inhibited [1] [µM] | lowest completely inhibitory concentration (LCI) ([1]; hypocotyl and cotyledon expansion and development of true leaves) [µM] | concentration that completely abolishes expansion and green pigmentation of cotyledons [2] |
| --- | --- | --- | --- | --- |
| O=S(=O)([O-])[O-].[Cu+2] [copper, CuSO4] | 50 | 100 | 160 | – |
| [Cl-].[Na+] [NaCl] | – | – | – | greater than 250 mM |
